experiment: Unbound brain to plasma concentration ratio, Kp of the compound in rat at 1 mg/kg, iv for 4 hrs by LC-MS/MS analysis; format: ADME, organism-based; conditions: brain and plasma, read-out: K(p,uu,brain)

Row | Compound | Kp uu at 4 h
1 | CN(C)CCn1cc(-c2ccc3c(c2)C(=O)Nc2cccc(n2)-c2nncn2CCCCO3)cn1 | 1
2 | C[C@@H]1CCOc2cc(F)ccc2C(=O)Nc2cccc(n2)-c2nncn2C1 | 0.17
3 | C[C@H]1CCCOc2cc(F)ccc2C(=O)Nc2cccc(n2)-c2nncn21 | 0.09
4 | Cc1cn(-c2ccc3c(c2)C(=O)Nc2cccc(n2)-c2nncn2CCCCO3)cn1 | < 0.1
5 | C[C@@H]1CCOc2cc(F)c(-c3cnn(CCN(C)C)c3)cc2C(=O)Nc2cccc(n2)-c2nncn2C1 | < 0.1

Reference: ChEMBL document CHEMBL4321844, “Rational Design and Optimization of a Novel Class of Macrocyclic Apoptosis Signal-Regulating Kinase 1 Inhibitors” (J Med Chem, 2019)
